How the values were obtained:
SNAP25 = biological target: T1, SNAP25 (Homo sapiens, UniProt P60880); experiment: Acyl resin-assisted capture detection of SNAP25 palmitoylation in HeLa cells; format: cell-based; details: 1.25 μmol/10^7 cells, relative to vehicle
T1 construct: we detected the palmitoylation levels of eight known palmitoylated proteins after treatment with 1; endogenous in cells; host or cells: HeLa
Description: (§1) HeLa cells were grown to confluency in 10 cm plates. Stock solutions of compounds were prepared in DMSO as before and diluted to the final indicated concentration in 5.5 mL of OptiMEM media before adding to cells. Cells were incubated at 37° C. for 20 min and then media removed and 3 mL of HBSS added to each plate. Cells were detached using a cell scraper, pelleted by centrifugation at 1,000 rcf for 5 min and the pellet processed using a CAPTUREome S-Palmitoylated Protein Kit (Badrilla, UK) according to the manufacturer's protocol. Samples were resolved by electrophoresis using 4-20% SDS-polyacrylamide gels (Bio-Rad) under denaturing and reducing conditions. Proteins were then electrotransferred to a PVDF membrane (Bio-Rad). […]
(§2) Assays were performed in 3 biological replicates. […] Western blots were analyzed using ImageJ^1. […]

ERK1/2 (pY204/pY187) = experiment: Detection of ERK1/2 phosphorylation in HeLa cells (western blot); format: cell-based; details: 1.25 μmol/10^7 cells, 20 min, then EGF 5 min
Description: HeLa cells were grown to confluency in 6 cm plates and then serum starved overnight in OptiMEM. Stock solutions of compounds were prepared in DMSO as before and diluted to the final indicated concentration in 2 mL of OptiMEM media before adding to cells. Cells were incubated at 37° C. for 20 min and then stimulated with […] EGF (ThermoFisher) for 5 min. Media was then removed and cells washed once with HBSS. 1.5 mL of HBSS was then added to each plate. Cells were detached using a cell scraper, pelleted by centrifugation at 1,000 rcf for 5 min and the pellet processed using MPER™ Mammalian Protein Extraction Reagent (ThermoFisher) with the addition of Halt Protease Inhibitor Cocktail (ThermoFisher) and 1 mM sodium orthovanadate. Samples were resolved by electrophoresis using 4-20% SDS-polyacrylamide gels (Bio-Rad) under denaturing and reducing conditions. Proteins were then electrotransferred to a PVDF membrane (Bio-Rad). The membrane was blocked with 3% BSA and then subjected to immunoblot analysis using AKT/MAPK Signaling Pathway Antibody Cocktail (ab151279) (Abcam) and secondary goat anti-rabbit IgG-HRP (sc-2030) (Santa Cruz Biotechnology). […]
Assays were performed in 3 biological replicates. Western blots were analyzed using ImageJl. […]

Gα(i) = experiment: Acyl resin-assisted capture detection of Gα(i) palmitoylation in HeLa cells; format: cell-based; details: 1.25 μmol/10^7 cells, relative to vehicle
Description: as §1, §2

[1] = AMD model reaction with S-palmitoyl MESNA (HPLC/ELSD/MS); details: 5 mM each reactant, NaH2PO4 buffer 200 mM pH 7.1, 10 mM TCEP, 25° C.
Description: The reaction was stirred at 25° C. and aliquots taken at the specified time points and subjected to HPLC/ELSD/MS analysis (Eclipse Plus C8 analytical column, 50-95% MeOH in H2O with 0.1% TFA, 0-7 min; 95% MeOH in H2O with 0.1% TFA, 7 min-end).

flotillin-2 = biological target: T2, flotillin-2 (Homo sapiens, UniProt Q14254); experiment: Acyl resin-assisted capture detection of flotillin-2 palmitoylation in HeLa cells; format: cell-based; details: 1.25 μmol/10^7 cells, relative to vehicle
T2 construct: we detected the palmitoylation levels of eight known palmitoylated proteins after treatment with 1; endogenous in cells; host or cells: HeLa
T2 sequence (Q14254 1-428): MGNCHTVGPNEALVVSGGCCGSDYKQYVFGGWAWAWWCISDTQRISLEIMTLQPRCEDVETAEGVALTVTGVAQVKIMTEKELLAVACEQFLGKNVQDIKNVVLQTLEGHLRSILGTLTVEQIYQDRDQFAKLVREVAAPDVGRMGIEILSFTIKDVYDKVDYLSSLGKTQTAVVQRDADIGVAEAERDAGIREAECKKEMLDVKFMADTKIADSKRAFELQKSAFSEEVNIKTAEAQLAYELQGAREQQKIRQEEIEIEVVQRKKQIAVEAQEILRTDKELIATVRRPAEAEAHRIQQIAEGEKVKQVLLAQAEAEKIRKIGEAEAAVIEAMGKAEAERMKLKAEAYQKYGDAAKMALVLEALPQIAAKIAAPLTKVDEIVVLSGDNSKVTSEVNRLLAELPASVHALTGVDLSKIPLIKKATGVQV
Description: as §1, §2

T1 sequence (P60880 whole entry): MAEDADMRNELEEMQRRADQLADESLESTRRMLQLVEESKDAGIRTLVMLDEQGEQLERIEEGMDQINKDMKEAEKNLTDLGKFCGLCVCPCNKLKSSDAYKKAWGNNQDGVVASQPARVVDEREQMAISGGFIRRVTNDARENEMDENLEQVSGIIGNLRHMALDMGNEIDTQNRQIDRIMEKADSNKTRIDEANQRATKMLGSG

- reduction of palmitoylation level of SNAP25 (SNAP25): > 80%
- reduction of palmitoylation level of flotillin-2 (flotillin-2): 19-40%
SMILES: CCCCCCCCNC(=O)[C@@H](N)CS [compound 1, H2N-L-Cys-Oct]
- ERK1/2 phosphorylation after EGF stimulation (ERK1/2 (pY204/pY187)): but not ERK1/2 phosphorylation
- reduction of palmitoylation level of Gα(i) (Gα(i)): > 80%
- reaction with MESNA thiopalmitate 3 (cleavage of model S-palmitoyl group, ligation product 4) [1]: proceeded rapidly and irreversibly
